# According to PubChem BioAssay AID248 (DTP/NCI, 2004):
# Where “and” joins values, the source holds several entries; their conditions need not be identical. Equal entries are not always repeated. Toxic doses and inconclusive results are not listed.
# Tested on: L1210 leukemia ip in BDF1 mice, survival T/C
# Assay: NCI In Vivo Anticancer Drug Screen. Data for tumor model L1210 Leukemia (intraperitoneal) in B6D2F1 (BDF1) mice
# Details: endpoint: mean survival time, higher = longer survival
# Summary of the method: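 Transplanted-tumor mice were given test agent; controls received vehicle only. Survival readings from the two groups were divided (treated over control).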
# [1] = dose: 100.0 mg/kg/injection, schedule: Q04DX003 (ip), vehicle: other
# [2] = dose: 200.0 mg/kg/injection, schedule: Q04DX003 (ip), vehicle: other
# [3] = dose: 400.0 mg/kg/injection, schedule: Q04DX003 (ip), vehicle: other
# [4] = dose: 200.0 mg/kg/injection, schedule: Q01DX001 (ip), vehicle: Klucel (hydroxypropylcellulose) (HPC)
# [5] = dose: 400.0 mg/kg/injection, schedule: Q01DX001 (ip), vehicle: Klucel (hydroxypropylcellulose) (HPC)
# [6] = dose: 50.0 mg/kg/injection, schedule: Q01DX009 (ip), vehicle: saline with Tween-80
# [7] = dose: 100.0 mg/kg/injection, schedule: Q01DX009 (ip), vehicle: saline with Tween-80
# [8] = dose: 200.0 mg/kg/injection, schedule: Q01DX009 (ip), vehicle: saline with Tween-80
# [9] = dose: 100.0 mg/kg/injection, schedule: Q04DX003 (ip), vehicle: Klucel (hydroxypropylcellulose) (HPC)
# [10] = dose: 200.0 mg/kg/injection, schedule: Q04DX003 (ip), vehicle: Klucel (hydroxypropylcellulose) (HPC)
# [11] = dose: 400.0 mg/kg/injection, schedule: Q04DX003 (ip), vehicle: Klucel (hydroxypropylcellulose) (HPC)
# [12] = dose: 100.0 mg/kg/injection, schedule: Q01DX001 (ip), vehicle: saline
# [13] = dose: 200.0 mg/kg/injection, schedule: Q01DX001 (ip), vehicle: saline
# [14] = dose: 50.0 mg/kg/injection, schedule: Q04DX002 (ip), vehicle: Klucel (hydroxypropylcellulose) (HPC)
# [15] = dose: 100.0 mg/kg/injection, schedule: Q04DX002 (ip), vehicle: Klucel (hydroxypropylcellulose) (HPC)
# [16] = dose: 100.0 mg/kg/injection, schedule: Q04DX003 (ip), vehicle: acetone
# [17] = dose: 200.0 mg/kg/injection, schedule: Q04DX003 (ip), vehicle: acetone
# [18] = dose: 400.0 mg/kg/injection, schedule: Q04DX003 (ip), vehicle: acetone
smiles,measurement,setting,value
Cc1cccc(N=Nc2c(C)nc(N)nc2C)c1C,T/C,[1],94 % of control
same,T/C,[2],96 % of control
same,T/C,[3],93 % of control
CCCCn1c(C)nc2c(N)cc(C(F)(F)F)cc21,T/C,[4],100 % of control
same,T/C,[5],111 % of control
O=C(O)c1cc[c]([Hg][S]c2ncnc3nc[nH]c23)cc1,T/C,"dose: 6.0 mg/kg/injection, schedule: Q01DX Z (ip), vehicle: carboxymethylcellulose (CMC)",105 % of control
same,T/C,"dose: 6.25 mg/kg/injection, schedule: Q01DX015 (ip), vehicle: saline",110 % of control
same,T/C,"dose: 12.0 mg/kg/injection, schedule: Q01DX Z (ip), vehicle: carboxymethylcellulose (CMC)",116 % of control
same,T/C,"dose: 16.5 mg/kg/injection, schedule: Q01DX009 (ip), vehicle: saline",118 % of control
same,T/C,"dose: 25.0 mg/kg/injection, schedule: Q01DX015 (ip), vehicle: saline",164 % of control
same,T/C,"dose: 50.0 mg/kg/injection, schedule: Q01DX Z (ip), vehicle: carboxymethylcellulose (CMC)",103 % of control
same,T/C,"dose: 100.0 mg/kg/injection, schedule: Q01DX Z (ip), vehicle: carboxymethylcellulose (CMC)",114 % of control
CCCCCCN(/N=C\C(=O)O)C(N)=O,T/C,[6],103 % of control
same,T/C,[7],88 % of control
same,T/C,[8],98 % of control
CCCNC(=S)NC,T/C,[9],90 % of control
same,T/C,[10],95 % of control
same,T/C,[11],109 % of control
COC(=O)C1(C)COP(=O)(Nc2ccc(OC)cc2)OC1 (configuration not stated),T/C,[12],89 % of control
same,T/C,[13],89 % of control
CN(C)C(=O)NC1CCc2ccccc21 (configuration not stated),T/C,"dose: 100.0 mg/kg/injection, schedule: Q01DX001 (ip), vehicle: other",95 % of control
same,T/C,"dose: 200.0 mg/kg/injection, schedule: Q01DX001 (ip), vehicle: other",93 % of control
same,T/C,"dose: 400.0 mg/kg/injection, schedule: Q01DX001 (ip), vehicle: other",93 % of control
CC1=CC(C)(C2(O)c3ccccc3-c3ccccc32)C=C(C)C1,T/C,"dose: 100.0 mg/kg/injection, schedule: Q04DX003 (ip), vehicle: saline with Tween-80",98 % of control
same,T/C,"dose: 200.0 mg/kg/injection, schedule: Q04DX003 (ip), vehicle: saline with Tween-80",95 % of control
same,T/C,"dose: 400.0 mg/kg/injection, schedule: Q04DX003 (ip), vehicle: saline with Tween-80",95 % of control
O=C1CCCCc2nn(c3ccccc23)C(=O)CCCCc2nn1c1ccccc21,T/C,"dose: 25.0 mg/kg/injection, schedule: Q04DX002 (ip), vehicle: Klucel (hydroxypropylcellulose) (HPC)",90 % of control
same,T/C,[14],97 % of control
same,T/C,[15],93 % of control
Nc1c(Cl)ncnc1NC1CC(CO)CC1O (configuration not stated),T/C,"dose: 100.0 mg/kg/injection, schedule: Q01DX001 (ip), vehicle: Klucel (hydroxypropylcellulose) (HPC)",96 % of control
same,T/C,[4],93 % of control
same,T/C,[5],96 % of control
Cc1cccc(NC(=O)CCc2ccc(Cl)cc2)n1,T/C,[12],95 % of control
C#CCOCCC(C(=O)O)C(=O)O,T/C,"dose: 100.0 mg/kg/injection, schedule: Q01DX009 (ip), vehicle: acetone",90 % of control
same,T/C,[16],101 % of control
same,T/C,"dose: 200.0 mg/kg/injection, schedule: Q01DX009 (ip), vehicle: acetone",97 % of control
same,T/C,[17],101 % of control
same,T/C,[18],92 % of control
Cc1cc(C)c(N(CC(=O)O)S(=O)(=O)c2ccccc2)c(C)c1Br,T/C,"dose: 75.0 mg/kg/injection, schedule: Q04DX003 (ip), vehicle: Klucel (hydroxypropylcellulose) (HPC)",92 % of control
same,T/C,"dose: 150.0 mg/kg/injection, schedule: Q04DX003 (ip), vehicle: Klucel (hydroxypropylcellulose) (HPC)",90 % of control
same,T/C,"dose: 300.0 mg/kg/injection, schedule: Q04DX003 (ip), vehicle: Klucel (hydroxypropylcellulose) (HPC)",90 % of control
c1ccc(C2=NN=C(c3ccccc3)CCC2)cc1,T/C,[16],95 % of control
same,T/C,[17],86 % of control
same,T/C,[18],98 % of control
c1ccc(CN2C3C(c4ccccc4)=NN=C(c4ccccc4)C32)cc1 (configuration not stated),T/C,[12],98 % of control
same,T/C,[13],102 % of control
same,T/C,"dose: 400.0 mg/kg/injection, schedule: Q01DX001 (ip), vehicle: saline",102 % of control
O=C(CSCC(=O)c1ccc(Br)cc1)c1ccc(Br)cc1,T/C,[1],101 % of control
same,T/C,[2],93 % of control
same,T/C,[3],86 % of control
Cc1cccc(C(C)(C)CO)c1,T/C,[6],100 % of control
same,T/C,[7],96 % of control
same,T/C,[8],96 % of control
CCCCN1C(=O)N(c2ccc(OCC)cc2)C2N(CCCC)C1C(C)(C)C2(C)C (configuration not stated),T/C,"dose: 25.0 mg/kg/injection, schedule: Q04DX002 (ip), vehicle: saline with Tween-80",103 % of control
same,T/C,"dose: 50.0 mg/kg/injection, schedule: Q04DX002 (ip), vehicle: saline with Tween-80",118 % of control
same,T/C,"dose: 100.0 mg/kg/injection, schedule: Q04DX002 (ip), vehicle: saline with Tween-80",122 % of control
CC(C)=CCn1cnc2c1c(=O)n(C)c(=O)n2C,T/C,[14],100 % of control
same,T/C,[15],88 % of control
same,T/C,"dose: 200.0 mg/kg/injection, schedule: Q04DX002 (ip), vehicle: Klucel (hydroxypropylcellulose) (HPC)",96 % of control
CN=C(c1ccc(NC(=O)c2ccc(C(=O)Nc3ccc(C(=NC)N(C)C)cc3)cc2)cc1)N(C)C,T/C,"dose: 0.94 mg/kg/injection, schedule: Q01DX Z (ip), vehicle: saline",94 % of control
same,T/C,"dose: 1.88 mg/kg/injection, schedule: Q01DX Z (ip), vehicle: saline",101 % of control
same,T/C,"dose: 3.75 mg/kg/injection, schedule: Q01DX Z (ip), vehicle: saline",97 % of control
same,T/C,"dose: 7.5 mg/kg/injection, schedule: Q01DX Z (ip), vehicle: saline",111 % of control
O=C(Nc1ccc(C2=NCCN2)cc1)c1ccc(Cl)c(C(=O)Nc2ccc(C3=NCCN3)cc2)c1,T/C,"dose: 2.0 mg/kg/injection, schedule: Q01DX Z (ip), vehicle: carboxymethylcellulose (CMC)",97 % of control
same,T/C,"dose: 3.75 mg/kg/injection, schedule: Q01DX Z (ip), vehicle: water",102 % of control
same,T/C,"dose: 4.0 mg/kg/injection, schedule: Q01DX Z (ip), vehicle: carboxymethylcellulose (CMC)",98 % of control
same,T/C,"dose: 7.5 mg/kg/injection, schedule: Q01DX Z (ip), vehicle: carboxymethylcellulose (CMC)",106 % of control
same,T/C,"dose: 7.5 mg/kg/injection, schedule: Q01DX Z (ip), vehicle: water",102 % of control
same,T/C,"dose: 15.0 mg/kg/injection, schedule: Q01DX Z (ip), vehicle: carboxymethylcellulose (CMC)",95 % of control
same,T/C,"dose: 15.0 mg/kg/injection, schedule: Q01DX Z (ip), vehicle: saline",115 % of control and 92 % of control
same,T/C,"dose: 15.0 mg/kg/injection, schedule: Q01DX Z (ip), vehicle: water",106 % of control
same,T/C,"dose: 30.0 mg/kg/injection, schedule: Q01DX Z (ip), vehicle: saline",118 % of control and 97 % of control
same,T/C,"dose: 60.0 mg/kg/injection, schedule: Q01DX Z (ip), vehicle: saline",100 % of control
Cc1cc(C)c[n+](Cc2ccccc2Cl)c1,T/C,"dose: 12.5 mg/kg/injection, schedule: Q01DX001 (ip), vehicle: saline",102 % of control
same,T/C,"dose: 25.0 mg/kg/injection, schedule: Q01DX001 (ip), vehicle: saline",96 % of control
O=C(O)CCc1ccc([N+](=O)[O-])cc1Cl,T/C,[9],96 % of control
same,T/C,[10],101 % of control
same,T/C,[11],101 % of control
COc1nc(C)c(C)[n+]([O-])n1,T/C,"dose: 12.5 mg/kg/injection, schedule: Q01DX001 (ip), vehicle: saline with Tween-80",94 % of control
same,T/C,"dose: 12.5 mg/kg/injection, schedule: Q01DX009 (ip), vehicle: saline with Tween-80",96 % of control
same,T/C,"dose: 12.5 mg/kg/injection, schedule: Q04DX003 (ip), vehicle: saline with Tween-80",97 % of control
same,T/C,"dose: 25.0 mg/kg/injection, schedule: Q01DX001 (ip), vehicle: saline with Tween-80",100 % of control
same,T/C,"dose: 25.0 mg/kg/injection, schedule: Q01DX009 (ip), vehicle: saline with Tween-80",108 % of control
same,T/C,"dose: 25.0 mg/kg/injection, schedule: Q04DX003 (ip), vehicle: saline with Tween-80",110 % of control
same,T/C,"dose: 50.0 mg/kg/injection, schedule: Q01DX001 (ip), vehicle: saline with Tween-80",107 % of control
same,T/C,[6],96 % of control
same,T/C,"dose: 50.0 mg/kg/injection, schedule: Q04DX003 (ip), vehicle: saline with Tween-80",94 % of control
